IC50 data for 30 molecules are collected here from ChEMBL document CHEMBL4334508, “Oleanolic Acid Derivatives as Potential Inhibitors of HIV-1 Protease” (J Nat Prod, 2019).

pIC50: −log10 of the molar value.

Sequence of Protease (Q9YQ12 whole entry): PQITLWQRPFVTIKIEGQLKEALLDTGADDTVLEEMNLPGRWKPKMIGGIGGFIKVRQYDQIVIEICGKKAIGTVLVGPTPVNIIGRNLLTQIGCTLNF

The assay concerns the target Protease (Human immunodeficiency virus 1, UniProt Q9YQ12). In words: Inhibition of HIV1 protease expressed in Escherichia coli using Abz-Ala-Arg-Val-Nle-Tyr(NO2)-Glu-Ala-Nle-NH2 peptide as substrate by FRET assay.
For orientation: pIC50 means −log10 of the IC50, conventionally taken in molar units. Low readings indicate a large IC50, high ones a small IC50. As to `CC1(C)CC[C@]2(C(=O)NCCCCCC(=O)NCC(=O)O)CC[C@]3(C)C(=CC[C@@H]4[C@@]5(C)CC[C@H](OC(=O)CCC(=O)O)C(C)(C)[C@@H]5CC[C@]43C)[C@@H]2C1`, the pIC50 is < 4.30. Next, `CC1(C)CC[C@]2(C(=O)NCCCC(=O)NCC(=O)O)CC[C@]3(C)C(=CC[C@@H]4[C@@]5(C)CC[C@H](OC(=O)c6ccccc6C(=O)O)C(C)(C)[C@@H]5CC[C@]43C)[C@@H]2C1`: 5.66; `CCCC(=O)O[C@H]1CC[C@]2(C)[C@H]3CC=C4[C@@H]5CC(C)(C)CC[C@]5(C(=O)NCCCCCCCCCCC(=O)N[C@@H](C)C(=O)O)CC[C@@]4(C)[C@]3(C)CC[C@H]2C1(C)C`: < 4.30. Then `CC(C)[C@H](NC(=O)CCCCCCCCCCNC(=O)[C@]12CCC(C)(C)C[C@H]1C1=CC[C@@H]3[C@@]4(C)CC[C@H](OC(=O)c5ccccc5C(=O)O)C(C)(C)[C@@H]4CC[C@@]3(C)[C@]1(C)CC2)C(=O)O`, with 5.92; and `CC1(C)CC[C@]2(C(=O)NCCCCCCCCCCC(=O)NCC(=O)O)CC[C@]3(C)C(=CC[C@@H]4[C@@]5(C)CC[C@H](OC(=O)CCCC(=O)O)C(C)(C)[C@@H]5CC[C@]43C)[C@@H]2C1`, with < 4.30. Next, `CCCCCC(=O)O[C@H]1CC[C@]2(C)[C@H]3CC=C4[C@@H]5CC(C)(C)CC[C@]5(C(=O)NCCCCCC(=O)N[C@H](C(=O)O)C(C)C)CC[C@@]4(C)[C@]3(C)CC[C@H]2C1(C)C`: < 4.30; `C[C@H](NC(=O)CCCCCCCCCCNC(=O)[C@]12CCC(C)(C)C[C@H]1C1=CC[C@@H]3[C@@]4(C)CC[C@H](OC(=O)c5ccccc5C(=O)O)C(C)(C)[C@@H]4CC[C@@]3(C)[C@]1(C)CC2)C(=O)O`: 6.00. With `CC(=O)O[C@H]1CC[C@]2(C)[C@H]3CC=C4[C@@H]5CC(C)(C)CC[C@]5(C(=O)NCCCC(=O)N[C@@H](C)C(=O)O)CC[C@@]4(C)[C@]3(C)CC[C@H]2C1(C)C`, the pIC50 was < 4.30.

Turning to `CCC(=O)O[C@H]1CC[C@]2(C)[C@H]3CC=C4[C@@H]5CC(C)(C)CC[C@]5(C(=O)NCCCC(=O)N[C@H](C(=O)O)C(C)C)CC[C@@]4(C)[C@]3(C)CC[C@H]2C1(C)C`, the negative-log IC50 (pIC50) is < 4.30.

Regarding `CC(=O)O[C@H]1CC[C@]2(C)[C@H]3CC=C4[C@@H]5CC(C)(C)CC[C@]5(C(=O)NCCCCCCCCCCC(=O)N[C@@H](C)C(=O)O)CC[C@@]4(C)[C@]3(C)CC[C@H]2C1(C)C`, the pIC50 is < 4.30. Next, `CC(C)[C@H](NC(=O)CCCCCCCCCCNC(=O)[C@]12CCC(C)(C)C[C@H]1C1=CC[C@@H]3[C@@]4(C)CC[C@H](OC(=O)c5ccccc5)C(C)(C)[C@@H]4CC[C@@]3(C)[C@]1(C)CC2)C(=O)O`: < 4.30.

For `CCC(=O)O[C@H]1CC[C@]2(C)[C@H]3CC=C4[C@@H]5CC(C)(C)CC[C@]5(C(=O)NCCCCCCCCCCC(=O)O)CC[C@@]4(C)[C@]3(C)CC[C@H]2C1(C)C`, the pIC50 is < 4.30. With `CCCC(=O)O[C@H]1CC[C@]2(C)[C@H]3CC=C4[C@@H]5CC(C)(C)CC[C@]5(C(=O)NCCCCCC(=O)O)CC[C@@]4(C)[C@]3(C)CC[C@H]2C1(C)C`, the pIC50 was < 4.30. Next, `CC(=O)O[C@H]1CC[C@]2(C)[C@H]3CC=C4[C@@H]5CC(C)(C)CC[C@]5(C(=O)NCCCCCC(=O)N[C@@H](C)C(=O)O)CC[C@@]4(C)[C@]3(C)CC[C@H]2C1(C)C`: 4.33; `C[C@H](NC(=O)CCCCCCCCCCNC(=O)[C@]12CCC(C)(C)C[C@H]1C1=CC[C@@H]3[C@@]4(C)CC[C@H](OC(=O)CCCC(=O)O)C(C)(C)[C@@H]4CC[C@@]3(C)[C@]1(C)CC2)C(=O)O`: < 4.30.

With `CCCCCCCCCCCC(=O)O[C@H]1CC[C@]2(C)[C@H]3CC=C4[C@@H]5CC(C)(C)CC[C@]5(C(=O)NCCCCCCCCCCC(=O)O)CC[C@@]4(C)[C@]3(C)CC[C@H]2C1(C)C`, the pIC50 was < 4.30. Next, `CC1(C)CC[C@]2(C(=O)NCCCC(=O)O)CC[C@]3(C)C(=CC[C@@H]4[C@@]5(C)CC[C@H](OC(=O)c6ccccc6)C(C)(C)[C@@H]5CC[C@]43C)[C@@H]2C1`: < 4.30; `CC(C)[C@H](NC(=O)CCCCCNC(=O)[C@]12CCC(C)(C)C[C@H]1C1=CC[C@@H]3[C@@]4(C)CC[C@H](OC(=O)CC(C)(C)CC(=O)O)C(C)(C)[C@@H]4CC[C@@]3(C)[C@]1(C)CC2)C(=O)O`: 4.63. Turning to `CCC(=O)O[C@H]1CC[C@]2(C)[C@H]3CC=C4[C@@H]5CC(C)(C)CC[C@]5(C(=O)NCCCCCCCCCCC(=O)N[C@H](C(=O)O)C(C)C)CC[C@@]4(C)[C@]3(C)CC[C@H]2C1(C)C`, the pIC50 was < 4.30.

Take `CCCCCCCCCCCC(=O)O[C@H]1CC[C@]2(C)[C@H]3CC=C4[C@@H]5CC(C)(C)CC[C@]5(C(=O)NCCCCCC(=O)N[C@@H](C)C(=O)O)CC[C@@]4(C)[C@]3(C)CC[C@H]2C1(C)C`: the pIC50 is < 4.30. For the molecule `CCCCCCCCCCCC(=O)O[C@H]1CC[C@]2(C)[C@H]3CC=C4[C@@H]5CC(C)(C)CC[C@]5(C(=O)NCCCC(=O)N[C@@H](C)C(=O)O)CC[C@@]4(C)[C@]3(C)CC[C@H]2C1(C)C`, the pIC50 is < 4.30. Then `CCCC(=O)O[C@H]1CC[C@]2(C)[C@H]3CC=C4[C@@H]5CC(C)(C)CC[C@]5(C(=O)NCCCC(=O)O)CC[C@@]4(C)[C@]3(C)CC[C@H]2C1(C)C`, with < 4.30; and `C[C@H](NC(=O)CCCNC(=O)[C@]12CCC(C)(C)C[C@H]1C1=CC[C@@H]3[C@@]4(C)CC[C@H](OC(=O)CC(C)(C)CC(=O)O)C(C)(C)[C@@H]4CC[C@@]3(C)[C@]1(C)CC2)C(=O)O`, with < 4.30. Next, `C[C@H](NC(=O)CCCCCNC(=O)[C@]12CCC(C)(C)C[C@H]1C1=CC[C@@H]3[C@@]4(C)CC[C@H](OC(=O)CCC(=O)O)C(C)(C)[C@@H]4CC[C@@]3(C)[C@]1(C)CC2)C(=O)O`: 4.40. Then `C[C@H](NC(=O)CCCCCNC(=O)[C@]12CCC(C)(C)C[C@H]1C1=CC[C@@H]3[C@@]4(C)CC[C@H](OC(=O)c5ccccc5)C(C)(C)[C@@H]4CC[C@@]3(C)[C@]1(C)CC2)C(=O)O`, with < 4.30; and `CCCCCC(=O)O[C@H]1CC[C@]2(C)[C@H]3CC=C4[C@@H]5CC(C)(C)CC[C@]5(C(=O)NCCCCCC(=O)N[C@@H](C)C(=O)O)CC[C@@]4(C)[C@]3(C)CC[C@H]2C1(C)C`, with < 4.30; and `CC(C)[C@H](NC(=O)CCCCCCCCCCNC(=O)[C@]12CCC(C)(C)C[C@H]1C1=CC[C@@H]3[C@@]4(C)CC[C@H](OC(=O)CCC(=O)O)C(C)(C)[C@@H]4CC[C@@]3(C)[C@]1(C)CC2)C(=O)O`, with < 4.30. On to `CC(=O)O[C@H]1CC[C@]2(C)[C@H]3CC=C4[C@@H]5CC(C)(C)CC[C@]5(C(=O)NCCCCCCCCCCC(=O)N[C@H](C(=O)O)C(C)C)CC[C@@]4(C)[C@]3(C)CC[C@H]2C1(C)C`, for which the pIC50 was < 4.30. As to `CC(=O)O[C@H]1CC[C@]2(C)[C@H]3CC=C4[C@@H]5CC(C)(C)CC[C@]5(C(=O)NCCCCCCCCCCC(=O)O)CC[C@@]4(C)[C@]3(C)CC[C@H]2C1(C)C`, the negative logarithm of the IC50 (pIC50) is < 4.30. Next, `CCC(=O)O[C@H]1CC[C@]2(C)[C@H]3CC=C4[C@@H]5CC(C)(C)CC[C@]5(C(=O)NCCCCCCCCCCC(=O)N[C@@H](C)C(=O)O)CC[C@@]4(C)[C@]3(C)CC[C@H]2C1(C)C`: < 4.30.
